From patent US20140072584A1, “NOVEL PHARMACEUTICAL USE OF BENZOIC ACID DERIVATIVES” (priority 2010, published 2014)

Legend:
[1] = test system: LEW-1W donor transplanted rat hearts; experiment: Heart transplantation model, LEW-1W rats as donor, LEW-1A as recipient, oral administration; assay type: in vivo; details: oral 500 mg/kg/day, four weeks; n=24
Method: a) Heart Transplantation Animal Model with LEW-1W Rats as Donor, LEW-1a as Recipient:
LEW-1W rats were used as donors; donors hearts after being isolated were preserved in saline at 0-4° C. […] The donor's aorta and the recipient's abdominal aorta were sutured up with 8-0 Prolene vascular threads, and the donor's pulmonary artery and the recipient's vena cava were sutured up with 8-0 Prolene vascular threads. When blood vessels were opened, the rat's heart would immediately resume beating, (please see Guillonneau C, Hill M, Hubert F X, Chiffoleau E, Hervé C, Xian-Liang Li, et al. CD40Ig treatment results in allograft acceptence mediated by CD8+CD45RClow T cells, IFN-γ and indoleamine 2,3 dioxygenase. Journal Clinical Investagtion. 2007; 117 (4): 1096-1106).
Observation parameters: after the abdomen was closed, palpation was used to check the beating of a transplanted rat heart, to determine graft survival period. That transplanted heart stops beating within 3 weeks was considered as having acute rejection, that transplanted heart stops beating after one month was considered as having chronic rejection, and that transplanted heart beats normally for more than three months was considered as having immune tolerance. […]

[2] = test system: BN donor transplanted rat hearts; experiment: Heart transplantation model, BN rats as donor, LEW-1A rats as recipient, oral administration; assay type: in vivo; details: oral 500 mg/kg/day, four weeks; n=6
Method: b) Heart Transplantation Animal Model with BN Rats as Donor and LEW-1A Rats as Recipient:
BN rats were used as donors; donors hearts after being isolated were preserved in saline at 0-4° C. […] The donor's aorta and the recipient's abdominal aorta were sutured up with 8-0 Prolene vascular threads, and the donor's pulmonary artery and the recipient's vena cava were sutured up with 8-OProlene vascular threads. When blood vessels were opened, the rat's heart would immediately resume beating.
Observation parameters: after the abdomen was closed, palpation was used to check the beating of a transplanted rat heart, to determine graft survival period. That transplanted heart stops beating within 3 weeks was considered as having acute rejection, that transplanted heart stops beating after one month was considered as having chronic rejection, and that transplanted heart beats normally for more than three months was considered as having immune tolerance.
Experiment Methods: 12 rats from the experiment model established by method b) BN rats as donors and LEW-1A rats as recipients were used and divided into study and control groups, 6 rats for each group. […]

[3] = test system: CD4+ effector cells; experiment: Mixed lymphocyte culture, CFSE proliferation of effector cells by flow cytometry; assay type: cell-based, rat; details: 4 days culture
Source text: Experiment method: From bodies of untreated rats (LEW-1A rats in Example 1), splenocytes were extracted according to the splenocytes extraction method described in Section 2.2.1. Splenocytes were fluorescence-labeled for TCR, CD4 and CD25, and by flow cytometry cell sorter TCR+CD4+CD25−cells were collected as CD4+ effector cells. Splenocytes after the removal of T-lymphocytes (TCR+cells), B cell lymphocytes (CD45R+cells) and NK cells (3.2.3+cells) by immuno-magnetic beads, were marked using fluorescent antibodies for TCR, CD11c and CD123 (antibody concentration was 5-10 μg/ml). By flow cytometry cell sorter, TCR-CD11c−CD123+cells were collected as pDC, and TCR-CD11c+CD123−cells were collected as mDC.
Well separated CD4+ effector cells and pDC or mDC and defined regulatory cells, respectively in a proportion of 4/4/1 were added into a 96-well culture plate, 200 ul culture medium was added and they were cultured in a 5% CO2 incubator at 37 degrees Celsius for 4 days. During the cultivation, cinnamoyl anthranilic acid (1.2-150 μmol) or control DMSO solvent was added. Cells were stain labeled after the four days, and the proliferation of effector cells was analyzed by a flow cytometer.
CD4+ effector cells before the mixed culture were marked by living organism dye CFSE (10*6 cells/ml in 5 μM CFSE). Labeled CD4+ effector cells were added to a mixed lymphocyte cultivation test, were marked again using fluorescent antibodies (TCR, CD4) after four days, and then were analyzed by a flow cytometer (TCR+CD4+gate) for effector cell proliferation.
Cinnamoyl anthranilic acid was added in different concentrations (150 μM, 75 μM, 37.5 μM, 18.7 μM, 9.35 μM, 4.7 μM, 2.35 μM, 1.2 μM). Cell stain labeling was conducted after 4 days of the culture, and the proliferation of effector cells was analyzed by a flow cytometer.

[4] = after oral administration, cited from earlier work

With COc1ccc(/C=C/C(=O)Nc2ccccc2C(=O)O)cc1OC [cinnamoyl anthranilic acid] the “recipients overcame acute rejection” value [1] was 92%, the “recipients with long-term survival with a state of induced immune tolerance” value [1] was 42% and the “recipients overcame acute rejection” value [2] was 100%. For the same molecule, the “recipients with long-term survival with a state of induced immune tolerance” value [2] was 50%, the “effect on proliferation of CD4 effector T cells (CFSE)” value ([3]; 37.5 μM to 9.35 μM) was “dose-dependent inhibitory effect” and the “effect on activated CD4 effector cells at high concentrations” value ([3]; 150 μM and 75 μM) was “directly kill activated CD4 effector cells”. For the same molecule, the “effect on proliferation of CD4 effector cells at low concentration” value ([3]; below 4.7 μM) was “did not show the inhibitory effect”, the “blood concentration at 48 h” value ([4]; 48 h) was “difficult to be detected” and the plasma half-life [4] was 5 to 8.6 h. The “time to peak plasma concentration” value [4] was 2 to 3 h and the tissue distribution [4] was “bronchial and lung have the highest concentration”.
